# Laboratory results: patent publication US20250320205A1, “STAT6 DEGRADERS” (Gilead Sciences, Inc., priority 2024, published 2025)
# Experiments:
# [1] = target: T1, STAT6 (Homo sapiens, UniProt P42226); test: STAT6 Degrader Assay (HiBiT based, HeLa LgBiT clone 4.14 cells); assay type: cell-based; details: geometric mean across assay runs and compound batches; DC50 provided for test compounds with >80% Emax; read-out: STAT6 degradation DC50
# T1 construct: These cells express endogenous STAT6; host or cells: HeLa LgBiT clone 4.14 (CRISPR knock-in of HiBiT into the endogenous STAT6 gene)
# T1 sequence (P42226 1-847): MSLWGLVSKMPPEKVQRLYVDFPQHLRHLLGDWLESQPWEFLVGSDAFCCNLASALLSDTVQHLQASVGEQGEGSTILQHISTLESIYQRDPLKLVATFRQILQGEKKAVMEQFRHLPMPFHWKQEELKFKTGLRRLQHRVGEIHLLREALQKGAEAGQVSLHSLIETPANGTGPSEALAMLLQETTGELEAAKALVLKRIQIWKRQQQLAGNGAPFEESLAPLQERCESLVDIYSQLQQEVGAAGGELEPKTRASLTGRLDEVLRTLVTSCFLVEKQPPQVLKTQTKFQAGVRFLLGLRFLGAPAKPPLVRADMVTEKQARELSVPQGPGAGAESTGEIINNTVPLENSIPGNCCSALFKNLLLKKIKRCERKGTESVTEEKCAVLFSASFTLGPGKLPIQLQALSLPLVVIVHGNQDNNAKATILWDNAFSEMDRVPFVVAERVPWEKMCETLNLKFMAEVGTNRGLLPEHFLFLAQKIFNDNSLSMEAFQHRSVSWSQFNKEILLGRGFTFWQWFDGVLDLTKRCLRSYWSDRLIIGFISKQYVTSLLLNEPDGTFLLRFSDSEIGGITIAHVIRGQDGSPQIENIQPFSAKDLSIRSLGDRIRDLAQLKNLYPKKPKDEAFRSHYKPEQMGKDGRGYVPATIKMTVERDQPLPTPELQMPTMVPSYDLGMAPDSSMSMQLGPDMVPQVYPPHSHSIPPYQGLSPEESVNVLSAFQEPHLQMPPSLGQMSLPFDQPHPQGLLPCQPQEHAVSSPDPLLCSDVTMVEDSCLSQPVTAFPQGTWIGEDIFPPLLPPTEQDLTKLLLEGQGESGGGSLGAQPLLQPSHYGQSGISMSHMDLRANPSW
# Summary of the method: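 DC50 (nM) comes from NanoBiT luminescence of HiBiT-knock-in STAT6 in HeLa LgBiT clone 4.14 cells, treated 4-24 h at 37° C. Luminescence reflects non-degraded STAT6, with 50 μM terfenadine wells taken as full degradation.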
# [2] = system: Eotaxin-3 (CCL26) release; test: Human Whole Blood Eotaxin-3 Assay (IL-4 stimulated); assay type: cell-based; details: Homo sapiens; geometric mean across assay runs and compound batches; EC50 provided for test compounds with >80% Emax
# Summary of the method: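 Lithium-heparin human whole blood preincubated 2 h at 37 °C with compounds (4-fold dilutions, triplicate, 0.5% DMSO final). Then stimulated with 400 pM final recombinant human IL-4 for 48 h. Eotaxin-3 in supernatant quantified by MSD immunoassay.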
SMILES,DC50 [1] [nM],EC50 [2] [nM]
"CNc1cc(=O)n(-c2ccnc3c2cc([C@H](C)N2CC=C(c4c(C)cc(C(=O)N5CCn6nc(CN7CCC(c8ccc(NC9CCC(=O)NC9=O)c(OC)c8)CC7)cc6C5)cc4F)CC2)n3C)cc1F (stereo partly drawn) [Example 2g90, 3-((4-(1-((5-(3-fluoro-4-(1-((S)-1-(4-(5-fluoro-4-(meth-ylamino)-2-oxopyridin-1(2H)-yl)-1-methyl-1H-pyrrolo[2,3-b]pyridin-2-yl)ethyl)-1,2,3,6-tetrahydropyridin-4-yl)-5-methylbenzoyl)-4,5,6,7-tetra-hydropyrazolo[1,5-a]pyrazin-2-yl)methyl)piperidin-4-yl)-2-methoxyphenyl)amino)-piperidine-2,6-dione]",0.2,0.6
"CNc1cc(=O)n(-c2ccnc3c2cc([C@H](C)N2CC=C(c4c(C)cc(C(=O)N5CCC(CN6CCN(c7ccc(NC8CCC(=O)NC8=O)cc7F)CC6)CC5)cc4F)CC2)n3C)cc1F (stereo partly drawn) [Example 2g91, 3-((3-fluoro-4-(4-((1-(3-fluoro-4-(1-((S)-1-(4-(5-fluoro-4-(methylamino)-2-oxopyridin-1(2H)-yl)-1-methyl-1H-pyrrolo[2,3-b]pyridin-2-yl)ethyl)-1,2,3,6-tetrahydropyridin-4-yl)-5-methyl-benzoyl)piperidin-4-yl)methyl)piperazin-1-yl)-phenyl)amino)piperidine-2,6-dione]",7,9.2
"CNc1ccn(-c2ccnc3c2cc([C@H](C)N2CC=C(c4c(C)cc(C(=O)N5CCC(CN6CCN(c7ncc(NC8CCC(=O)NC8=O)cc7F)C[C@@H]6C)CC5)cc4F)CC2)n3C)c(=O)c1 (stereo partly drawn) [Example 2g94, 3-((5-fluoro-6-((S)-4-((1-(3-fluoro-5-methyl-4-(1-((S)-1-(1-methyl-4-(4-(methyl-amino)-2-oxopyridin-1(2H)-yl)-1H-pyrrolo[2,3-b]pyridin-2-yl)ethyl)-1,2,3,6-tetrahydro-pyridin-4-yl)benzoyl)piperi-din-4-yl)methyl)-3-methyl-piperazin-1-yl)pyridin-3-yl)-amino)piperidine-2,6-dione]",6.6,23.6
"CNc1ccn(-c2ccnc3c2cc([C@H](C)N2CC=C(c4c(C)cc(C(=O)N5CCC(CN6CCN(c7ccc(NC8CCC(=O)NC8=O)cc7F)C[C@@H]6C)CC5)cc4F)CC2)n3C)c(=O)c1 (stereo partly drawn) [Example 2g97, 3-((3-fluoro-4-((S)-4-((1-(3-fluoro-5-methyl-4-(1-((S)-1-(1-methyl-4-(4-(methyl-amino)-2-oxopyridin-1(2H)-yl)-1H-pyrrolo[2,3-b]pyridin-2-yl)ethyl)-1,2,3,6-tetrahydro-pyridin-4-yl)benzoyl)piperi-din-4-yl)methyl)-3-methyl-piperazin-1-yl)phenyl)amino)-piperidine-2,6-dione]",20.8,36.7
"CNc1ccn(-c2ccnc3c2cc(CN2CCC(c4c(F)cc(C(=O)N5CCn6nc(CN7CCC(c8ccc(NC9CCC(=O)NC9=O)cc8F)CC7)cc6C5)cc4F)CC2)n3C)c(=O)c1 (stereo not drawn) [Example 2g100, 3-((4-(1-((5-(3,5-difluoro-4-(1-((1-methyl-4-(4-(methyl-amino)-2-oxopyridin-1(2H)-yl)-1H-pyrrolo[2,3-b]pyridin-2-yl)methyl)piperidin-4-yl)-benzoyl)-4,5,6,7-tetrahydro-pyrazolo[1,5-a]pyrazin-2-yl)-methyl)piperidin-4-yl)-3-fluorophenyl)amino)piperi-dine-2,6-dione]",1.2,1.8
"CNc1ccn(-c2ccnc3c2cc([C@@H](C)N2CC=C(c4c(F)cc(C(=O)N5CCn6nc(CN7CCC(c8ccc(NC9CCC(=O)NC9=O)cc8F)CC7)cc6C5)cc4F)CC2)n3C)c(=O)c1 (stereo partly drawn) [Example 2g103, 3-((4-(1-((5-(3,5-difluoro-4-(1-((R)-1-(1-methyl-4-(4-(methylamino)-2-oxopyridin-1(2H)-yl)-1H-pyrrolo[2,3-b]pyridin-2-yl)ethyl)-1,2,3,6-tetrahydropyridin-4-yl)benzo-yl)-4,5,6,7-tetrahydropyrazolo [1,5-a]pyrazin-2-yl)methyl)-piperidin-4-yl)-3-fluorophen-yl)amino)piperidine-2,6-dione]",8.8,13.1
